Results published in ChEMBL document CHEMBL1128596, “Thienylimidazo[2,1-b]thiazoles as inhibitors of mitochondrial NADH dehydrogenase” (J Med Chem, 1995).

Tests used:
Bos taurus = species: Bos taurus; assay: Residual NADH:UBQ:DCIP reductase activity in beef mitochondrial particles; set-up: concentration or dose not given beside the values
Parascaris equorum = assay: Residual NADH:UBQ:DCIP reductase activity in parascaris mitochondrial particles; set-up: concentration or dose not given beside the values
[1] = Compound was tested for it's ability to inhibit NADH UBQ reductase activity in beef mitochondrial particles; set-up: species or system Bos taurus
[2] = Compound was tested for it's ability to inhibit NADH UBQ reductase activity in parascaris mitochondrial particles

| Structure (SMILES) | residual activity (Bos taurus) [%] | residual activity (Parascaris equorum) [%] | IC50 [1] [µM] | IC50 [2] [µM] |
| --- | --- | --- | --- | --- |
| Cn1c(-c2ccccc2)c(/C=C/c2cccs2)[n+]2ccsc12 | 81 | 94 | – | – |
| Cn1c(-c2ccccc2)c(/C=C/c2cccs2)[n+]2c1SCC2 | 77 | 92 | – | – |
| c1csc(-c2cn3ccsc3n2)c1 | 57 | 79 | – | – |
| C=C(C)[C@H]1Cc2c(ccc3c2O[C@@H]2COc4cc(OC)c(OC)cc4[C@@H]2C3=O)O1 | 34 | 65 | – | – |
| c1csc(-c2cn3c(n2)SCC3)c1 | 68 | 88 | – | – |
| Cc1cn2cc(-c3cccs3)nc2s1 | 28 | 59 | 70 | 220 |
| Cn1c(Cl)c(/C=C\c2cccs2)[n+]2c1SCC2 | 85 | 92 | – | – |
| Cc1csc2nc(-c3cccs3)cn12 | 38 | 70 | 90 | 380 |
| Cn1c(Cl)c(/C=C/c2cccs2)[n+]2c1SCC2 | 91 | 88 | – | – |
| c1cc(-c2cn3ccsc3n2)cs1 | 68 | 83 | – | – |
| Clc1cn2cc(-c3cccs3)nc2s1 | 40 | 75 | – | – |
| Cc1cn2cc(-c3ccsc3)nc2s1 | 40 | 73 | 140 | – |
| Cc1csc2nc(-c3ccsc3)cn12 | 43 | 75 | 210 | – |
